# Assay results from patent publication US6762174B1 (priority 1998, dated 2004).
# Like-named read-outs stand apart in the source and are kept apart here.
# Assays:
# [1] = tested on: MT-1 breast cancer xenograft; assay: MT-1 breast cancer xenograft: BT by intratumor injection; format: in vivo, male nude mice; design: Median RTV: unit not given here; conditions: for Median RTV: BT 30 ng intratumor
# Protocol: In a parallel experiment, a low dose of 30 ng of BT was injected directly into the tumor on days 3, 17 and 31. The T/C for RTV measured on day 35 was 50%.
# B16 melanoma = format: in vivo, female BDF1 mice
# MOPC-315 myeloma [2] = assay: MOPC-315 Myeloma study #1: β-alethine ip day 2 (1 × 10^6 tumor cells)
# MOPC-315 myeloma [3] = assay: MOPC-315 Myeloma study #3: β-alethine ip day 0 (3 × 10^5 tumor cells); conditions: for Animals Surviving: BT 100 ng/kg
# [4] = tested on: MT-1 breast cancer xenograft
compound,measurement,setting,value
"NCCC(=O)NCCSSCCNC(=O)CCN [BT, β-alethine]",T/C for RTV,"[1]; 30 ng BT into the tumor days 3, 17, 31, day 35",50%
same,Median RTV,[1]; day 8,1.27
same,Median RTV,[1]; day 11,1.40
same,Median RTV,[1]; day 14,1.77
same,Median RTV,[1]; day 17,2.61
same,Median RTV,[1]; day 21,3.74
same,Median RTV,[1]; day 24,4.34
same,Median RTV,[1]; day 28,4.93
same,Median RTV,[1]; day 31,6.37
same,Median RTV,[1]; day 35,8.01
same,Primary Tumor Size (Median RTV),"B16 melanoma; BT 30 pg/kg alone, day 0",1
same,Primary Tumor Size (Median RTV),"B16 melanoma; BT 30 pg/kg alone, day 4",1.0
same,Primary Tumor Size (Median RTV),"B16 melanoma; BT 30 pg/kg alone, day 7",1.8
same,Primary Tumor Size (Median RTV),"B16 melanoma; BT 30 pg/kg alone, day 10",6.0
same,Primary Tumor Size (Median RTV),"B16 melanoma; BT 30 pg/kg alone, day 14",17.3
same,Primary Tumor Size (Median RTV),"B16 melanoma; BT 30 pg/kg alone, day 17",62.0
same,Primary Tumor Size (Median RTV),"B16 melanoma; BT 30 ng/kg alone, day 0",1
same,Primary Tumor Size (Median RTV),"B16 melanoma; BT 30 ng/kg alone, day 4",1.0
same,Primary Tumor Size (Median RTV),"B16 melanoma; BT 30 ng/kg alone, day 7",3.1
same,Primary Tumor Size (Median RTV),"B16 melanoma; BT 30 ng/kg alone, day 10",8.1
same,Primary Tumor Size (Median RTV),"B16 melanoma; BT 30 ng/kg alone, day 14",15.7
same,Primary Tumor Size (Median RTV),"B16 melanoma; BT 30 ng/kg alone, day 17",32.4
same,Primary Tumor Size (Median RTV),"B16 melanoma; BT 30 ug/kg alone, day 0",1
same,Primary Tumor Size (Median RTV),"B16 melanoma; BT 30 ug/kg alone, day 4",1.0
same,Primary Tumor Size (Median RTV),"B16 melanoma; BT 30 ug/kg alone, day 7",1.3
same,Primary Tumor Size (Median RTV),"B16 melanoma; BT 30 ug/kg alone, day 10",5.5
same,Primary Tumor Size (Median RTV),"B16 melanoma; BT 30 ug/kg alone, day 14",16.6
same,Primary Tumor Size (Median RTV),"B16 melanoma; BT 30 ug/kg alone, day 17",30.4
same,Primary Tumor Size (Median RTV),"B16 melanoma; BT 30 mg/kg alone, day 0",1
same,Primary Tumor Size (Median RTV),"B16 melanoma; BT 30 mg/kg alone, day 4",1.7
same,Primary Tumor Size (Median RTV),"B16 melanoma; BT 30 mg/kg alone, day 7",3.3
same,Primary Tumor Size (Median RTV),"B16 melanoma; BT 30 mg/kg alone, day 10",7.5
same,Primary Tumor Size (Median RTV),"B16 melanoma; BT 30 mg/kg alone, day 14",23.2
same,Primary Tumor Size (Median RTV),"B16 melanoma; BT 30 mg/kg alone, day 17",34.8
same,Primary Tumor Size (Median RTV),"B16 melanoma; BT 30 fg/kg alone, day 0",1
same,Primary Tumor Size (Median RTV),"B16 melanoma; BT 30 fg/kg alone, day 4",1.7
same,Primary Tumor Size (Median RTV),"B16 melanoma; BT 30 fg/kg alone, day 7",2.4
same,Primary Tumor Size (Median RTV),"B16 melanoma; BT 30 fg/kg alone, day 10",7.0
same,Primary Tumor Size (Median RTV),"B16 melanoma; BT 30 fg/kg alone, day 14",16.1
same,Primary Tumor Size (Median RTV),"B16 melanoma; BT 30 fg/kg alone, day 17",41.6
same,Animals Surviving,"MOPC-315 myeloma [2]; BT 3 ng/kg, day 10",10
same,Animals Surviving,"MOPC-315 myeloma [2]; BT 3 ng/kg, day 11",10
same,Animals Surviving,"MOPC-315 myeloma [2]; BT 3 ng/kg, day 12",10
same,Animals Surviving,"MOPC-315 myeloma [2]; BT 3 ng/kg, day 13",9
same,Animals Surviving,"MOPC-315 myeloma [2]; BT 3 ng/kg, day 14",8
same,Animals Surviving,"MOPC-315 myeloma [2]; BT 3 ng/kg, day 15",7
same,Animals Surviving,"MOPC-315 myeloma [2]; BT 3 ng/kg, day 16",6
same,Animals Surviving,"MOPC-315 myeloma [2]; BT 3 ng/kg, day 17",4
same,Animals Surviving,"MOPC-315 myeloma [2]; BT 3 ng/kg, day 18",3
same,Animals Surviving,"MOPC-315 myeloma [2]; BT 3 ng/kg, day 19",3
same,Animals Surviving,"MOPC-315 myeloma [2]; BT 3 ng/kg, day 20",2
same,Animals Surviving,"MOPC-315 myeloma [2]; BT 3 ng/kg, day 21",0
same,Animals Surviving,"MOPC-315 myeloma [2]; BT 100 μg/kg, day 10",10
same,Animals Surviving,"MOPC-315 myeloma [2]; BT 100 μg/kg, day 11",10
same,Animals Surviving,"MOPC-315 myeloma [2]; BT 100 μg/kg, day 12",10
same,Animals Surviving,"MOPC-315 myeloma [2]; BT 100 μg/kg, day 13",10
same,Animals Surviving,"MOPC-315 myeloma [2]; BT 100 μg/kg, day 14",7
same,Animals Surviving,"MOPC-315 myeloma [2]; BT 100 μg/kg, day 15",6
same,Animals Surviving,"MOPC-315 myeloma [2]; BT 100 μg/kg, day 16",6
same,Animals Surviving,"MOPC-315 myeloma [2]; BT 100 μg/kg, day 17",5
same,Animals Surviving,"MOPC-315 myeloma [2]; BT 100 μg/kg, day 18",3
same,Animals Surviving,"MOPC-315 myeloma [2]; BT 100 μg/kg, day 19",3
same,Animals Surviving,"MOPC-315 myeloma [2]; BT 100 μg/kg, day 20",1
same,Animals Surviving,"MOPC-315 myeloma [2]; BT 100 μg/kg, day 21",0
same,Animals Surviving,"MOPC-315 myeloma [2]; BT 3 mg/kg, day 10",10
same,Animals Surviving,"MOPC-315 myeloma [2]; BT 3 mg/kg, day 11",10
same,Animals Surviving,"MOPC-315 myeloma [2]; BT 3 mg/kg, day 12",10
same,Animals Surviving,"MOPC-315 myeloma [2]; BT 3 mg/kg, day 13",10
same,Animals Surviving,"MOPC-315 myeloma [2]; BT 3 mg/kg, day 14",7
same,Animals Surviving,"MOPC-315 myeloma [2]; BT 3 mg/kg, day 15",4
same,Animals Surviving,"MOPC-315 myeloma [2]; BT 3 mg/kg, day 16",4
same,Animals Surviving,"MOPC-315 myeloma [2]; BT 3 mg/kg, day 17",3
same,Animals Surviving,"MOPC-315 myeloma [2]; BT 3 mg/kg, day 18",2
same,Animals Surviving,"MOPC-315 myeloma [2]; BT 3 mg/kg, day 19",2
same,Animals Surviving,"MOPC-315 myeloma [2]; BT 3 mg/kg, day 20",1
same,Animals Surviving,"MOPC-315 myeloma [2]; BT 3 mg/kg, day 21",1
same,Animals Surviving,"MOPC-315 myeloma [2]; BT 3 mg/kg, day 22",1
same,Animals Surviving,"MOPC-315 myeloma [2]; BT 3 mg/kg, day 23",1
same,Animals Surviving,"MOPC-315 myeloma [2]; BT 3 mg/kg, day 24",0
same,Animals Surviving,"MOPC-315 myeloma [2]; BT 30 fg/kg, day 10",10
same,Animals Surviving,"MOPC-315 myeloma [2]; BT 30 fg/kg, day 11",10
same,Animals Surviving,"MOPC-315 myeloma [2]; BT 30 fg/kg, day 12",10
same,Animals Surviving,"MOPC-315 myeloma [2]; BT 30 fg/kg, day 13",8
same,Animals Surviving,"MOPC-315 myeloma [2]; BT 30 fg/kg, day 14",5
same,Animals Surviving,"MOPC-315 myeloma [2]; BT 30 fg/kg, day 15",3
same,Animals Surviving,"MOPC-315 myeloma [2]; BT 30 fg/kg, day 16",3
same,Animals Surviving,"MOPC-315 myeloma [2]; BT 30 fg/kg, day 17",3
same,Animals Surviving,"MOPC-315 myeloma [2]; BT 30 fg/kg, day 18",2
same,Animals Surviving,"MOPC-315 myeloma [2]; BT 30 fg/kg, day 19",2
same,Animals Surviving,"MOPC-315 myeloma [2]; BT 30 fg/kg, day 20",0
same,Animals Surviving,"MOPC-315 myeloma [2]; BT 30 fg/kg, day 21",0
same,Animals Surviving,MOPC-315 myeloma [3]; day 10,10
same,Animals Surviving,MOPC-315 myeloma [3]; day 11,10
same,Animals Surviving,MOPC-315 myeloma [3]; day 12,10
same,Animals Surviving,MOPC-315 myeloma [3]; day 13,10
same,Animals Surviving,MOPC-315 myeloma [3]; day 14,7
same,Animals Surviving,MOPC-315 myeloma [3]; day 17,0
same,survival prolonged to,"MOPC-315 myeloma [3]; BT 3 mg/kg, control 16 days",18 days
same,Median Tumor Size,"[4]; BT 30 ng/kg every 14 days, day 13",0.080 cm^3
same,Median Tumor Size,"[4]; BT 30 ng/kg every 14 days, day 16",0.104 cm^3
same,Median Tumor Size,"[4]; BT 30 ng/kg every 14 days, day 20",0.176 cm^3
same,Median Tumor Size,"[4]; BT 30 ng/kg every 14 days, day 23",0.202 cm^3
same,Median Tumor Size,"[4]; BT 30 ng/kg every 14 days, day 27",0.250 cm^3
same,Median Tumor Size,"[4]; BT 30 ng/kg every 14 days, day 30",0.294 cm^3
same,Median Tumor Size,"[4]; BT 30 ng/kg every 14 days, day 34",0.298 cm^3
same,Median Tumor Size,"[4]; BT 30 ng/kg every 14 days, day 38",0.426 cm^3
same,Median Tumor Size,"[4]; BT 30 ng/kg every 14 days, day 41",0.429 cm^3
same,Median Tumor Size,"[4]; BT 30 ng/kg every 14 days, day 45",0.419 cm^3
same,RTV,"[4]; BT 30 ng, day 13",1
same,RTV,"[4]; BT 30 ng, day 16",1.4
same,RTV,"[4]; BT 30 ng, day 20",2.1
same,RTV,"[4]; BT 30 ng, day 23",2.3
same,RTV,"[4]; BT 30 ng, day 27",2.8
same,RTV,"[4]; BT 30 ng, day 30",3.4
same,RTV,"[4]; BT 30 ng, day 34",3.8
same,RTV,"[4]; BT 30 ng, day 38",4.5
same,RTV,"[4]; BT 30 ng, day 41",4.9
same,RTV,"[4]; BT 30 ng, day 45",6.0
same,Median Tumor Size,"[4]; BT 30 ug/kg every 14 days, day 13",0.055 cm^3
same,Median Tumor Size,"[4]; BT 30 ug/kg every 14 days, day 16",0.095 cm^3
same,Median Tumor Size,"[4]; BT 30 ug/kg every 14 days, day 20",0.180 cm^3
same,Median Tumor Size,"[4]; BT 30 ug/kg every 14 days, day 23",0.193 cm^3
same,Median Tumor Size,"[4]; BT 30 ug/kg every 14 days, day 27",0.325 cm^3
same,Median Tumor Size,"[4]; BT 30 ug/kg every 14 days, day 30",0.408 cm^3
same,Median Tumor Size,"[4]; BT 30 ug/kg every 14 days, day 34",0.410 cm^3
same,Median Tumor Size,"[4]; BT 30 ug/kg every 14 days, day 38",0.607 cm^3
same,Median Tumor Size,"[4]; BT 30 ug/kg every 14 days, day 41",0.696 cm^3
same,Median Tumor Size,"[4]; BT 30 ug/kg every 14 days, day 45",0.743 cm^3
same,RTV,"[4]; BT 30 ug, day 13",1
same,RTV,"[4]; BT 30 ug, day 16",1.4
same,RTV,"[4]; BT 30 ug, day 20",2.6
same,RTV,"[4]; BT 30 ug, day 23",3.0
same,RTV,"[4]; BT 30 ug, day 27",4.3
same,RTV,"[4]; BT 30 ug, day 30",5.2
same,RTV,"[4]; BT 30 ug, day 34",6.0
same,RTV,"[4]; BT 30 ug, day 38",9.1
same,RTV,"[4]; BT 30 ug, day 41",11.5
same,RTV,"[4]; BT 30 ug, day 45",14.0
same,Median Tumor Size,"[4]; BT 30 fg/kg every 14 days, day 13",0.104 cm^3
same,Median Tumor Size,"[4]; BT 30 fg/kg every 14 days, day 16",0.128 cm^3
same,Median Tumor Size,"[4]; BT 30 fg/kg every 14 days, day 20",0.213 cm^3
same,Median Tumor Size,"[4]; BT 30 fg/kg every 14 days, day 23",0.253 cm^3
same,Median Tumor Size,"[4]; BT 30 fg/kg every 14 days, day 27",0.442 cm^3
same,Median Tumor Size,"[4]; BT 30 fg/kg every 14 days, day 30",0.637 cm^3
same,Median Tumor Size,"[4]; BT 30 fg/kg every 14 days, day 34",1.062 cm^3
same,Median Tumor Size,"[4]; BT 30 fg/kg every 14 days, day 38",1.241 cm^3
same,Median Tumor Size,"[4]; BT 30 fg/kg every 14 days, day 41",1.464 cm^3
same,Median Tumor Size,"[4]; BT 30 fg/kg every 14 days, day 45",1.911 cm^3
same,RTV,"[4]; BT 30 fg, day 13",1
same,RTV,"[4]; BT 30 fg, day 16",1.6
same,RTV,"[4]; BT 30 fg, day 20",3.4
same,RTV,"[4]; BT 30 fg, day 23",4.4
same,RTV,"[4]; BT 30 fg, day 27",7.6
same,RTV,"[4]; BT 30 fg, day 30",9.3
same,RTV,"[4]; BT 30 fg, day 34",11.9
same,RTV,"[4]; BT 30 fg, day 38",16.1
same,RTV,"[4]; BT 30 fg, day 41",18.2
same,RTV,"[4]; BT 30 fg, day 45",19.8
